Results taken from PubChem BioAssay (NCI).
Values joined by “and” are separate entries in the source; they are usually repeats but may differ in a detail not shown here. Equal values may be shown once.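 All cell lines were grown in 96-well plates and treated with compound for 48 hours. GI50: concentration for 50% inhibition of growth. Definition used: TGI = concentration required for complete inhibition of growth.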

Experiments:
Test in all cases: NCI tumour cell line growth inhibition, 48 h
ACHN renal = test system: ACHN renal
NCI/ADR-RES ovarian = test system: NCI/ADR-RES ovarian
PC-3 prostate = test system: PC-3 prostate
MALME-3M melanoma = test system: MALME-3M melanoma
LOX IMVI melanoma = test system: LOX IMVI melanoma
SK-MEL-2 melanoma = test system: SK-MEL-2 melanoma
KM12 colon = test system: KM12 colon
NCI-H226 lung = test system: NCI-H226 lung
A549 NSCLC = test system: A549 NSCLC
NCI-H23 lung = test system: NCI-H23 lung
P388 leukemia = test system: P388 leukemia
CAKI-1 renal = test system: CAKI-1 renal
UO-31 renal = test system: UO-31 renal
HL-60(TB) leukemia = test system: HL-60(TB) leukemia
HCT-116 colon = test system: HCT-116 colon
DMS 114 small cell lung = test system: DMS 114 small cell lung
RPMI-8226 leukemia = test system: RPMI-8226 leukemia
RXF 393 renal = test system: RXF 393 renal
SR leukemia = test system: SR leukemia
SK-MEL-28 melanoma = test system: SK-MEL-28 melanoma
BT-549 breast = test system: BT-549 breast
UACC-62 melanoma = test system: UACC-62 melanoma
K-562 leukemia = test system: K-562 leukemia
OVCAR-3 ovarian = test system: OVCAR-3 ovarian
SNB-19 CNS = test system: SNB-19 CNS
MDA-MB-231 breast = test system: MDA-MB-231 breast
CCRF-CEM leukemia = test system: CCRF-CEM leukemia
M14 melanoma = test system: M14 melanoma
SN12C renal = test system: SN12C renal
786-0 renal = test system: 786-0 renal
DU-145 prostate = test system: DU-145 prostate
MOLT-4 leukemia = test system: MOLT-4 leukemia
EKVX NSCLC = test system: EKVX NSCLC
SK-OV-3 ovarian = test system: SK-OV-3 ovarian
SF-539 CNS = test system: SF-539 CNS
OVCAR-5 ovarian = test system: OVCAR-5 ovarian
IGROV1 ovarian = test system: IGROV1 ovarian
KM20L2 colon = test system: KM20L2 colon
MDA-N = test system: MDA-N
DLD-1 colon = test system: DLD-1 colon
A498 renal = test system: A498 renal
NCI-H522 lung = test system: NCI-H522 lung
SN12K1 renal = test system: SN12K1 renal
HOP-62 NSCLC = test system: HOP-62 NSCLC
OVCAR-4 ovarian = test system: OVCAR-4 ovarian
HT29 colon = test system: HT29 colon
T-47D breast = test system: T-47D breast
U251 CNS = test system: U251 CNS
M19-MEL melanoma = test system: M19-MEL melanoma
NCI-H460 lung = test system: NCI-H460 lung
HCT-15 colon = test system: HCT-15 colon
SF-295 CNS = test system: SF-295 CNS
COLO 205 colon = test system: COLO 205 colon
HOP-18 NSCLC = test system: HOP-18 NSCLC
SF-268 CNS = test system: SF-268 CNS
SNB-78 CNS = test system: SNB-78 CNS
XF 498 CNS = test system: XF 498 CNS
MCF7 breast = test system: MCF7 breast
HS 578T breast = test system: HS 578T breast
SK-MEL-5 melanoma = test system: SK-MEL-5 melanoma
HOP-92 NSCLC = test system: HOP-92 NSCLC
SW-620 colon = test system: SW-620 colon
HCC-2998 colon = test system: HCC-2998 colon
DMS 273 small cell lung = test system: DMS 273 small cell lung
OVCAR-8 ovarian = test system: OVCAR-8 ovarian
P388/ADR leukemia = test system: P388/ADR leukemia
TK-10 renal = test system: TK-10 renal
UACC-257 melanoma = test system: UACC-257 melanoma
MDA-MB-435 = test system: MDA-MB-435
SNB-75 CNS = test system: SNB-75 CNS
LXFL 529 NSCLC = test system: LXFL 529 NSCLC
RXF-631 renal = test system: RXF-631 renal

Structure (SMILES): O=C1N[C@@H]([C@H]2CC[C@H](Cl)CN2)C(=O)N[C@H]1[C@H]1CC[C@H](Cl)CN1
- TGI (ACHN renal): 1.5 µM
- TGI (NCI/ADR-RES ovarian): 10.4 µM
- TGI (PC-3 prostate): 18 µM
- TGI (MALME-3M melanoma): 8.59 µM
- TGI (LOX IMVI melanoma): 2.6 µM
- TGI (SK-MEL-2 melanoma): 7.95 µM
- TGI (KM12 colon): 19.1 µM
- TGI (NCI-H226 lung): 11.6 µM
- TGI (A549 NSCLC): 76.5 µM
- TGI (NCI-H23 lung): 8.76 µM
- TGI (P388 leukemia): 20.3 µM
- TGI (CAKI-1 renal): 3.06 µM
- TGI (UO-31 renal): 6.42 µM
- TGI (HL-60(TB) leukemia): 0.426 µM
- TGI (HCT-116 colon): 32.7 µM
- TGI (DMS 114 small cell lung): 10.6 µM
- TGI (RPMI-8226 leukemia): 75.1 µM
- TGI (RXF 393 renal): 12.2 µM
- TGI (SR leukemia): 6.18 µM
- TGI (SK-MEL-28 melanoma): 31.1 µM
- TGI (BT-549 breast): 4.27 µM
- TGI (UACC-62 melanoma): 3.53 µM
- TGI (K-562 leukemia): 227 µM
- TGI (OVCAR-3 ovarian): 7.61 µM
- TGI (SNB-19 CNS): 104 µM
- TGI (MDA-MB-231 breast): 6.43 µM
- TGI (CCRF-CEM leukemia): 33.4 µM
- TGI (M14 melanoma): 2.3 µM
- TGI (SN12C renal): 18.9 µM
- TGI (786-0 renal): 0.61 µM
- TGI (DU-145 prostate): 23.8 µM
- TGI (MOLT-4 leukemia): 13.3 µM
- TGI (EKVX NSCLC): 19.2 µM
- TGI (SK-OV-3 ovarian): 2.31 µM
- TGI (SF-539 CNS): 4.27 µM
- TGI (OVCAR-5 ovarian): 9.05 µM
- TGI (IGROV1 ovarian): 37.6 µM
- TGI (KM20L2 colon): 63.9 µM
- TGI (MDA-N): 4.98 µM
- TGI (DLD-1 colon): 286 µM
- TGI (A498 renal): 15.6 µM
- TGI (NCI-H522 lung): 4.06 µM
- TGI (SN12K1 renal): 13.5 µM
- TGI (HOP-62 NSCLC): 4.04 µM
- TGI (OVCAR-4 ovarian): 8.78 µM
- TGI (HT29 colon): 32.1 µM
- TGI (T-47D breast): 56.1 µM
- TGI (U251 CNS): 12.3 µM
- TGI (M19-MEL melanoma): 23.5 µM
- TGI (NCI-H460 lung): 2.88 µM
- TGI (HCT-15 colon): 57.5 µM
- TGI (SF-295 CNS): 5.36 µM
- TGI (COLO 205 colon): 9.68 µM
- TGI (HOP-18 NSCLC): 139 µM
- TGI (SF-268 CNS): 51.5 µM
- TGI (SNB-78 CNS): 87.8 µM
- TGI (XF 498 CNS): 0.819 µM
- TGI (MCF7 breast): 7.25 µM
- TGI (HS 578T breast): 91.7 µM
- TGI (SK-MEL-5 melanoma): 5.53 µM
- TGI (HOP-92 NSCLC): 7.95 µM
- TGI (SW-620 colon): 29.4 µM
- TGI (HCC-2998 colon): 6.42 µM
- TGI (DMS 273 small cell lung): 7.35 µM
- TGI (OVCAR-8 ovarian): 13.9 µM
- TGI (P388/ADR leukemia): 23.1 µM
- TGI (TK-10 renal): 36.6 µM
- TGI (UACC-257 melanoma): 15.1 µM
- TGI (MDA-MB-435): 32 µM
- TGI (SNB-75 CNS): 3.65 µM

Structure (SMILES): O=C1CCNC/C1=C\c1ccccc1
- TGI (ACHN renal): 78 µM
- TGI (LOX IMVI melanoma): 35.5 µM
- TGI (SK-MEL-2 melanoma): > 100 µM
- TGI (KM12 colon): 28.9 µM
- TGI (NCI-H226 lung): 60.8 µM
- TGI (A549 NSCLC): 92.2 µM
- TGI (NCI-H23 lung): 34.4 µM
- TGI (CAKI-1 renal): > 100 µM
- TGI (UO-31 renal): 35.5 µM
- TGI (HL-60(TB) leukemia): 47.7 µM
- TGI (HCT-116 colon): 47.4 µM
- TGI (DMS 114 small cell lung): 73.4 µM
- TGI (RPMI-8226 leukemia): 83.6 µM
- TGI (LXFL 529 NSCLC): 34.5 µM
- TGI (SR leukemia): > 100 µM
- TGI (SK-MEL-28 melanoma): 35.1 µM
- TGI (UACC-62 melanoma): 34.3 µM
- TGI (K-562 leukemia): > 100 µM
- TGI (OVCAR-3 ovarian): 54.8 µM
- TGI (SNB-19 CNS): 46.4 µM
- TGI (M14 melanoma): 27.9 µM
- TGI (SN12C renal): > 100 µM
- TGI (786-0 renal): 29 µM
- TGI (MOLT-4 leukemia): > 100 µM
- TGI (EKVX NSCLC): > 100 µM
- TGI (SK-OV-3 ovarian): > 100 µM
- TGI (SF-539 CNS): 42.3 µM
- TGI (OVCAR-5 ovarian): 81.3 µM
- TGI (IGROV1 ovarian): > 100 µM
- TGI (KM20L2 colon): 28.4 µM
- TGI (DLD-1 colon): 48.3 µM
- TGI (A498 renal): > 100 µM
- TGI (NCI-H522 lung): 23.4 µM
- TGI (HOP-62 NSCLC): 79 µM
- TGI (RXF-631 renal): > 100 µM
- TGI (OVCAR-4 ovarian): 31.3 µM
- TGI (HT29 colon): 32.9 µM
- TGI (U251 CNS): 38 µM
- TGI (M19-MEL melanoma): 39.3 µM
- TGI (NCI-H460 lung): > 100 µM
- TGI (HCT-15 colon): 50.1 µM
- TGI (SF-295 CNS): 67.8 µM
- TGI (COLO 205 colon): > 100 µM
- TGI (SF-268 CNS): 45 µM
- TGI (SNB-78 CNS): > 100 µM
- TGI (XF 498 CNS): 74.7 µM
- TGI (SK-MEL-5 melanoma): 40.2 µM
- TGI (SW-620 colon): 95.3 µM
- TGI (HCC-2998 colon): 42.8 µM
- TGI (DMS 273 small cell lung): 69.1 µM
- TGI (OVCAR-8 ovarian): 43.4 µM
- TGI (TK-10 renal): 61.2 µM
- TGI (UACC-257 melanoma): 58.8 µM
- TGI (SNB-75 CNS): > 100 µM

Structure (SMILES): COc1cccc2c1C(=O)c1c(O)c3c(c(O)c1C2=O)C[C@@](O)(C(C)=O)C[C@@H]3OC1CC(N(Cc2ccccc2)Cc2ccccc2)C(O)C(C)O1 (some centres undefined)
- TGI (NCI/ADR-RES ovarian): > 37.5 µM
- TGI (PC-3 prostate): > 28.1 µM
- TGI (P388 leukemia): 12.3 µM
- GI50 (LXFL 529 NSCLC): < 0.01 µM
- TGI (BT-549 breast): > 50 µM
- TGI (MDA-MB-231 breast): > 28.1 µM
- TGI (DU-145 prostate): > 28.1 µM
- TGI (MDA-N): > 23.2 µM
- TGI (SN12K1 renal): > 46.9 µM
- TGI (T-47D breast): > 28.1 µM
- TGI (MCF7 breast): > 36 µM
- TGI (HS 578T breast): > 50 µM
- GI50 (SW-620 colon): < 0.01 µM and 0.0869 µM
- TGI (P388/ADR leukemia): > 50 µM
- TGI (MDA-MB-435): 14 µM
